Values quoted from earlier work in patent publication US20120070506A1, “Animal Treatment” (BOMAC RESEARCH LIMITED, priority 2009, published 2012).

Test system: animals
Details: veterinary treatment

For CC(C(=O)O)c1ccc2c(c1)[nH]c1ccc(Cl)cc12 (stereo not drawn) [carprofen, 6-chloro-alpha-methyl-9H-carbozole-2-acetic acid], the known adverse effect is listed as “hepatotoxicity (acute hepatic necrosis) or other liver damage”.
